Article PMC13184981, “Discovery and Development of a Potent LIMK2 Isoform-Specific Degrader” (ACS Chemical Biology, 2026)

Tests used:
[1] = target: T1, LIMK2 (Homo sapiens, UniProt P53671); experiment: Western blot of endogenous LIMK2 in HuCCT1 cells; type: cell-based; conditions: HuCCT1, 6 h treatment
Procedure: HuCCT1 cell line was cultured in Roswell Park Memorial Institute (RPMI) 1640 medium supplemented with GlutaMAX, 10% fetal bovine serum (FBS), and 1% penicillin/streptomycin. The cell line was maintained in an incubator with 5% CO2 at 37 °C. For the treatment, 3 × 10^5 cells were plated and treated with the compounds and DMSO as the control for 6 h. The cells were then lysed using RIPA buffer (50 mM Tris-HCl pH 7.4, 150 mM NaCl, 1% Triton X-100, 1% NaDOC, 0.1% SDS, 1 mM EDTA), freshly supplemented with protease and phosphatase inhibitor cocktails (Sigma-Aldrich, Darmstadt, Germany). After 1 h incubation on ice, the lysates were centrifuged for 30 min at […], and the protein-containing supernatant was collected. The protein concentrations were determined using Protein Assay Dye Reagent Concentrate (Bradford, Bio-Rad, Hercules, CA, USA) and Pre-Diluted Protein Assay Standards: Bovine Serum Albumin (BSA) Set (Thermo Fisher Scientific, Darmstadt, Germany). Then, equal amounts of protein was mixed with Roti-Load 1 dye (Carl Roth, Karlsruhe, Germany) and 4x Laemmli Buffer (Bio-Rad, Hercules, CA, USA), denatured at 95 °C, and run on NuPAGE 4–12% bis-Tris gels (Thermo Fisher Scientific). Proteins were blotted on methanol-activated PVDF Transfer Membranes (Thermo Fisher Scientific) using the wet transfer method with the transfer buffer (Thermo Fisher Scientific) and 20% methanol. Afterward, the membranes were blocked with 5% milk or 3% BSA in 0.1% TBS-T for 1 h at RT and incubated overnight at 4 °C with primary antibodies: GAPDH (catalog no. 2118, Cell Signaling Technology, MA, USA, 1:1000 dilution), LIMK1 (catalog no. 3842, Cell Signaling Technology, 1:1000 dilution), LIMK2 (catalog no. 3845, 1:500 dilution), phospho-Cofilin (catalog no. 3313, Cell Signaling Technology, 1:1000 dilution), Cofilin (catalog no. 5175, Cell Signaling Technology, 1:1000 dilution). Then, the membranes were washed with 0.1% TBS-T and incubated with secondary horseradish-peroxidase (HRP)-conjugated antibody for 2 h (catalog no. 7074, Cell Signaling Technology, 1:3000 dilution). The membranes were washed again with 0.1% TBS-T before they were developed using X-ray films (Fujifilm, Dusseldorf, Germany).

[2] = target: T2, LIMK1 (Homo sapiens, UniProt P53667); experiment: Western blot of endogenous LIMK1 in HuCCT1 cells; type: cell-based; conditions: HuCCT1, 6 h treatment
T2 construct: host or cells: HEK293T
T2 sequence (P53667 whole entry): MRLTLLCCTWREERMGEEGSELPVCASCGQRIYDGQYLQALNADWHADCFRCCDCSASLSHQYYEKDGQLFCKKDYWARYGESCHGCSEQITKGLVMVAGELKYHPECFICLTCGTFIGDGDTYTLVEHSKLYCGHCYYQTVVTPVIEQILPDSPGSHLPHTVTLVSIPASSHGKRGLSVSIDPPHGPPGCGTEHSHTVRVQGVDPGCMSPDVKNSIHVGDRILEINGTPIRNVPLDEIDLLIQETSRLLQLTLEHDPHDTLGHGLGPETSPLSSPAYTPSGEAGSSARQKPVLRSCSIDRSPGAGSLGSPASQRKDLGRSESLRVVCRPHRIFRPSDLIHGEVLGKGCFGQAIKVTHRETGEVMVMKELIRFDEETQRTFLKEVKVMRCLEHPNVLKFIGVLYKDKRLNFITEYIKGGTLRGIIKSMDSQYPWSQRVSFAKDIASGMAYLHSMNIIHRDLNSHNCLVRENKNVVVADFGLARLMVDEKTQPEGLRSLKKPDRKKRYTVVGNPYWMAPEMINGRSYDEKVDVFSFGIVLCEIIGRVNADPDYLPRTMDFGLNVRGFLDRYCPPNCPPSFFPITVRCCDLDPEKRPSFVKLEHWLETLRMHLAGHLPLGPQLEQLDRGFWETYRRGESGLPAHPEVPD
Procedure: HuCCT1 cell line was cultured in Roswell Park Memorial Institute (RPMI) 1640 medium supplemented with GlutaMAX, 10% fetal bovine serum (FBS), and 1% penicillin/streptomycin. The cell line was maintained in an incubator with 5% CO2 at 37 °C. For the treatment, 3 × 10^5 cells were plated and treated with the compounds and DMSO as the control for 6 h. The cells were then lysed using RIPA buffer (50 mM Tris-HCl pH 7.4, 150 mM NaCl, 1% Triton X-100, 1% NaDOC, 0.1% SDS, 1 mM EDTA), freshly supplemented with protease and phosphatase inhibitor cocktails (Sigma-Aldrich, Darmstadt, Germany). After 1 h incubation on ice, the lysates were centrifuged for 30 min at […], and the protein-containing supernatant was collected. The protein concentrations were determined using Protein Assay Dye Reagent Concentrate (Bradford, Bio-Rad, Hercules, CA, USA) and Pre-Diluted Protein Assay Standards: Bovine Serum Albumin (BSA) Set (Thermo Fisher Scientific, Darmstadt, Germany). Then, equal amounts of protein was mixed with Roti-Load 1 dye (Carl Roth, Karlsruhe, Germany) and 4x Laemmli Buffer (Bio-Rad, Hercules, CA, USA), denatured at 95 °C, and run on NuPAGE 4–12% bis-Tris gels (Thermo Fisher Scientific). Proteins were blotted on methanol-activated PVDF Transfer Membranes (Thermo Fisher Scientific) using the wet transfer method with the transfer buffer (Thermo Fisher Scientific) and 20% methanol. […]

[3] = target: T3, EGFP–LIMK2 (Homo sapiens, UniProt P53671); experiment: EGFP-LIMK2 depletion live-cell assay (Incucyte); type: cell-based; conditions: for EGFP–LIMK2 degradation (in words): live cells, over 72 h
T3 construct: P2A remnant (from EGFP-LIMK2-P2A-mCherry; that residues stay on LIMK2 after self-cleavage is own knowledge) (C); expressed in transfected cells; host or cells: HuCCT1 (lentiviral transduction, doxycycline-inducible pCW57 vector)
T3 sequence (P53671 whole entry): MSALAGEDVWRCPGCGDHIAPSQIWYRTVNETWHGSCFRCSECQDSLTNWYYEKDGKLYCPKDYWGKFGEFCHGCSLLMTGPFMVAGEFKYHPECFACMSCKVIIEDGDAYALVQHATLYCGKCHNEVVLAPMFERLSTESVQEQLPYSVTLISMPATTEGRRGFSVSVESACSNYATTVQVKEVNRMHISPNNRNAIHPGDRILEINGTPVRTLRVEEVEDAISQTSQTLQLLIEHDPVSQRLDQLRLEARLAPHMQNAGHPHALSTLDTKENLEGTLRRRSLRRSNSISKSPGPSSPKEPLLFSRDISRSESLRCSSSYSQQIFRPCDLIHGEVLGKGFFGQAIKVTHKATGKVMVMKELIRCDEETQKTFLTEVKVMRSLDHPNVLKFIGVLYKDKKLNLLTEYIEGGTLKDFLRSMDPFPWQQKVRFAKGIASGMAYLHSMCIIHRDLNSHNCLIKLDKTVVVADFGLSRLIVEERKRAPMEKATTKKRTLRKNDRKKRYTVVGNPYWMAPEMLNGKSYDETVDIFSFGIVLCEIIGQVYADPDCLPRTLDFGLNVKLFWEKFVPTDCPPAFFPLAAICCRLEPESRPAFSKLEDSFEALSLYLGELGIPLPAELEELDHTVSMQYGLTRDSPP
Procedure: To enable a more comprehensive and rapid evaluation of the synthesized PROTACs, we generated a stable, doxycycline-inducible HuCCT1 cell line that expressed an N-terminally fused EGFP–LIMK2 protein. […] The degradation activity of the synthesized PROTACs set was screened at five concentrations ranging from 1 nM to 1000 nM over 72 h using live-cell imaging (Figure E).
LIMK2 was cloned into pcDNA5-EGFP-NLS-P2A-mCherry-PTS1 (Addgene plasmid #87803) by replacing the NLS sequence with the LIMK2 sequence. pcDNA5-EGFP-NLS-P2A-mCherry-PTS1 was a gift from Andrea Musacchio. Subsequently, EGFP-[…]-P2A-mCherry was cloned into the lentiviral vector pCW57-MCS1-P2A-MCS2 (Hygro) (Addgene plasmid #80922) to generate pCW57-HygB-EGFP-LIMK2-P2A-mCherry. pCW57-MCS1-P2A-MCS2 (Hygro) was a gift from Adam Karpf.
HEK293T cells (ATCC, CRL-3216) were cultured in Dulbecco’s Modified Eagle’s Medium (DMEM), while HUCCT1 cells (ATCC, CRL-1997) were cultured in RPMI medium supplemented with 10% fetal bovine serum (FBS) and 1% penicillin/streptomycin (P/S) antibiotic mix (all from Sigma-Aldrich, St. Louis, Missouri, USA). Lentiviral particles were produced in HEK293T cells using pCW57-HygB-EGFP-LIMK2-[…]P2A-mCherry, pMD2.G, and psPAX2. HUCCT1 cells were transduced with lentivirus to express LIMK2.
Briefly, the cells were plated and propagated in 6-well plates overnight. The next day, transduction with viruses was performed. Two days later, transduced cells with pCW57-HygB-EGFP-LIMK2-P2A-mCherry plasmids were selected using 100 μg/mL Hygromycin B. After at least three passages, the cells were sorted for the same populations of RFP- and GFP-expressing cells using the SH800S Cell Sorter (Sony Biotechnology, San Jose, CA, USA). Stable pools of cells were maintained in the same medium used for selection.
To assess the turnover of LIMK2, we used the Incucyte S3 or XS5 live-cell imaging system and performed the assay as previously described. , Briefly, 2,000 HUCCT1 cells stably expressing EGFP-LIMK2-P2A-mCherry were seeded per well in a 384-well plate in 50 μL of RPMI medium supplemented with 10% fetal bovine serum (FBS) and 1% penicillin/streptomycin. Cells were incubated for 24 h before treatment. To induce LIMK2 expression, 1 μg/mL of doxycycline (Sigma-Aldrich, D9891–1G) was added at the time of seeding.
After 24 h, 50 μL of medium containing either 0.1% DMSO or the desired concentration of PROTACs was added. Fluorescence in three channels–GFP, RFP, and phase contrast (cell confluence)–was monitored every 2 h for 72 h using the Incucyte S3 or XS5 (Sartorius, Germany). LIMK2 turnover was quantified by calculating the ratio of total fluorescence intensity of RFP to GFP. Each time point represents the average ratio from three technical replicates.

[4] = target: T1, LIMK2; experiment: NanoBRET cellular target engagement, LIMK2; type: cell-based; design: host or cells: HEK293T; conditions: HEK293T cells, Tracer K10, 2 h; read-out: LIMK2 NanoBRET IC50
Procedure: Gene encoding LIMK1 (Promega, NV3391) and LIMK2 (Promega, NV1531), CRBN (Promega, N2741) proteins cloned in frame with NanoLuc fusion tag at the C-terminus, were transfected into HEK293T cells using FuGENE HD (Promega, E2312) following manufacture’s protocol and proteins were allowed to express for 20 h at 37 °C and 5% CO2. […] The 10 μL of transfected cells after trypsinization and resuspending in Opti-MEM (Life Technologies, 31985070) were dispensed into each well of the 384-well plate (Greiner 781207) at a cell density of 2 × 10^5 cells/mL. For dose–response BRET measurements, compounds at various concentrations, immediately followed by Tracer K10 (Promega, Tracer DB ID: T000008) for LIMK1 and LIMK2, CRBN Tracer (Promega, Tracer DB ID: T000018) for CRBN at an optimum KD concentration chosen from TracerDB (tracerdb.org), were pipetted using an Echo acoustic dispenser (Labcyte). The system was allowed to equilibrate for 2 h at 37 °C and 5% CO2 before BRET measurements. To measure BRET signal, the NanoBRET NanoGlo Substrate (Promega, N1573) was added as per the manufacturer’s protocol, and filtered luminescence was measured on a PHERAstar plate reader (BMG Labtech) equipped with a luminescence filter pair (450 nm BP filter (donor) and 610 nm LP filter (acceptor)). For lysed NanoBRET measurement, 25 nL of Digitonin (0.05 μg/μL) was pipetted to each well using Labcyte, and the plate was incubated for 5 min at 37 °C and 5% CO2. After incubation, the BRET signals were measured by a PHERAstar plate reader following the same procedure as intact NanoBRET measurement. […] The BRET ratios are normalized to both of them in the prism output data file. Competitive displacement data were then normalized to controls and were graphed using GraphPad Prism 9 software employing a normalized 3-parameter curve fit with the following equation: Y = 100/(1 + 10̂(X – logIC50)).

[5] = target: VHL:ELOB:ELOC (Homo sapiens, UniProt P40337); experiment: SPR VHL binary complex affinity and kinetics; type: binding; conditions: read-out: binary affinity toward VHL
Chain of VHL:ELOB:ELOC (P40337 54-213 limits assumed, species assumed): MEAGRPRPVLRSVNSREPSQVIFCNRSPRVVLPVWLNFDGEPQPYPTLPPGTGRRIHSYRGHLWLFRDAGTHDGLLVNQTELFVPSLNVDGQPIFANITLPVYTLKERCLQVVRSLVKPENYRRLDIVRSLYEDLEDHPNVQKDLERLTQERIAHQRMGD
Chain of VHL:ELOB:ELOC (Q15370 whole entry partner, species assumed): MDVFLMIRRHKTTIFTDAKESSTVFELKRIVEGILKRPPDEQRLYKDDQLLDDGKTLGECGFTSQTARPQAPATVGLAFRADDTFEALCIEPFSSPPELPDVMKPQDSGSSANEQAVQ
Chain of VHL:ELOB:ELOC (Q15369 17-112 partner limits assumed, species assumed): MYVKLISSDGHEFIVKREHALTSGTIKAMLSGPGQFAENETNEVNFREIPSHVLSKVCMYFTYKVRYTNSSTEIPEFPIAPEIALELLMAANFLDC
Procedure: (§1) Approximately 1000 RU of biotinylated VHL:ELOB:ELOC was loaded onto a Series S CM5 chip coated with Streptavidin. All experiments were performed at 25 °C. The chip was equilibrated with a running buffer containing 20 mM HEPES, pH 7.4, 150 mM NaCl, 0.5 mM TCEP, 1% BSA, and 0.05% Tween 20.
To assess ternary complex formation, 1 μM of VHL-binding PROTAC was preincubated with a 2-fold molar excess of LIMK1 to promote binary complex formation and minimize the hook effect. The resulting binary complex was injected over the immobilized VHL:ELOB:ELOC surface at a flow rate of 30 μL/min for 60 s, followed by a dissociation phase of 180 s. An increase in resonance signal relative to the binary complex alone was used as an indicator of ternary complex formation. In separate experiments, binary and ternary complex affinities were measured and compared using serial dilutions as described for LIMK1. Additionally, the association rate constant (k a), dissociation rate constant (k d) were determined for the binary complexes.

[6] = target: T4, VHL:ELOB:ELOC and LIMK1 kinase domain (Homo sapiens, UniProt P40337+P53667); experiment: SPR VHL ternary complex formation with LIMK1; type: binding
T4 construct: (330–S637), LIMK1-avi; 6xHis-Z-tag (TEV-cleavable) (N, cleaved yes); made in house; host or cells: LIMK1: insect cells (baculovirus)
T4 sequence (P40337 54-213 limits assumed, species assumed): as the sequence (P40337 54-213 limits assumed, species assumed) above
T4 sequence (Q15370 whole entry partner, species assumed, the tested form may be a part): as the sequence (Q15370 whole entry partner, species assumed) above
T4 sequence (Q15369 17-112 partner limits assumed, species assumed): as the sequence (Q15369 17-112 partner limits assumed, species assumed) above
T4 sequence (P53667 330-637 limits assumed, species assumed): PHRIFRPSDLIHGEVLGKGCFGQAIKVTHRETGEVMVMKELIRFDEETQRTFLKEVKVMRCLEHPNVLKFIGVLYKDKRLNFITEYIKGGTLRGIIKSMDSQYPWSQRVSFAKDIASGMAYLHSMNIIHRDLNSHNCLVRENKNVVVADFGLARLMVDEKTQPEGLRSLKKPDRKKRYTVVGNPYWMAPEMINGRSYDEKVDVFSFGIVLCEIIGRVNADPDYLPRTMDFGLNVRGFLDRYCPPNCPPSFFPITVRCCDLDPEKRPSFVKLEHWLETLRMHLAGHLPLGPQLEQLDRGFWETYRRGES
Procedure: Surprised by the weak target engagement of VHL-based LIMK PROTACs, we investigated whether they form a stable ternary complex. To address this, we established an SPR-based ternary complex assay using immobilized VHL:ELOB/C complex on an SPR chip. In this assay format, the binary complex was formed by preincubating PROTACs with a 2-fold excess of purified LIMK1 kinase domain to avoid the hook effect. The binary complex was passed over an SPR surface immobilized with the VHL:ELOB/C complex. Ternary complex formation was detected as a large signal increase, as expected for the large molecular weight increase upon binding of the LIMK1 PROTAC complex (Figure C).
as §1
To assess ternary complex formation, 1 μM of VHL-binding PROTAC was preincubated with a 2-fold molar excess of LIMK1 to promote binary complex formation and minimize the hook effect. […] In separate experiments, binary and ternary complex affinities were measured and compared using serial dilutions as described for LIMK1. Additionally, the association rate constant (k a), dissociation rate constant (k d) were determined for the binary complexes.

[7] = test system: HEK293T cells; experiment: CellTiter-Glo 2.0 cell viability assay; type: cell-based, human; conditions: 24-h treatment, 25 nM to 20 µM
Procedure: The effects of the PROTAC on cell viability were determined using the CellTiter-Glo 2.0 Cell Viability Assay (Promega, G9241) following the manufacturer’s protocol. […] 40 μL of assay reagent was added and incubated for 10 min at RT. Filtered luminescence was measured using a PHERAstar plate reader (BMG Labtech), and data were analyzed using GraphPad Prism 9.

T1 sequence (P53671 whole entry): as the sequence (P53671 whole entry) above

SMILES: O=C1CCC(N2C(=O)c3cccc(OCc4cn(CC(=O)Nc5ncc(-c6cc(C(F)F)nn6-c6c(Cl)cccc6Cl)s5)nn4)c3C2=O)C(=O)N1 (stereo not drawn) [21a]
- LIMK2 degradation (Western blot) [1]: did not degrade either isoform
- LIMK1 degradation (Western blot) [2]: did not degrade either isoform

SMILES: Cc1c(OCc2cn(CCCCCC(=O)Nc3ncc(-c4cc(C(F)F)nn4-c4c(Cl)cccc4Cl)s3)nn2)cccc1N1CCC(=O)NC1=O [22c]
- DC50 ([3]; HuCCT1 EGFP–LIMK2 cells, live-cell kinetic assay over 72 h, read-out: DC50 (LIMK2 degradation)): 13.7 nM
- potency enhancement (DC50) relative to 21b ([3]; vs 21b): 2.4 fold
- IC50 [4]: 80 nM

SMILES: Cc1ncc(-c2ccc(CNC(=O)[C@@H]3C[C@@H](O)CN3C(=O)[C@@H](NC(=O)c3cn(CCCCCC(=O)Nc4ncc(-c5cc(C(F)F)nn5-c5c(Cl)cccc5Cl)s4)nn3)C(C)(C)C)cc2)s1 [23c]
- EGFP–LIMK2 degradation (in words) [3]: moderate LIMK2 degradation
- LIMK2 degradation (Western blot) [1]: modest LIMK2 degradation at 1 μM

SMILES: Cc1ncc(-c2ccc(CNC(=O)[C@@H]3C[C@@H](O)CN3C(=O)[C@@H](NC(=O)CCc3cn(CCCCCC(=O)Nc4ncc(-c5cc(C(F)F)nn5-c5c(Cl)cccc5Cl)s4)nn3)C(C)(C)C)cc2)s1 [23f]
- Kd [5]: > 1000 nM

SMILES: Cc1ncc(-c2ccc(CNC(=O)[C@@H]3C[C@@H](O)CN3C(=O)[C@@H](NC(=O)CCCc3cn(CCCCC(=O)Nc4ncc(-c5cc(C(F)F)nn5-c5c(Cl)cccc5Cl)s4)nn3)C(C)(C)C)cc2)s1 [23h]
- Kd [5]: > 1000 nM
- higher affinity upon formation of ternary complex vs binary [6]: 10 fold

SMILES: Cc1ncc(-c2ccc(CNC(=O)[C@@H]3C[C@@H](O)CN3C(=O)[C@@H](NC(=O)CCCc3cn(CCCCCC(=O)Nc4ncc(-c5cc(C(F)F)nn5-c5c(Cl)cccc5Cl)s4)nn3)C(C)(C)C)cc2)s1 [23i]
- Kd [5]: > 1000 nM
- higher affinity upon formation of ternary complex vs binary [6]: 10 fold

SMILES: Cc1c(OCc2cn(CCCCC(=O)Nc3ncc(-c4cc(C(F)F)nn4-c4c(Cl)cccc4Cl)s3)nn2)cccc1N1CCC(=O)N(C)C1=O [THNAN69-NC]
- EGFP–LIMK2 degradation (in words) [3]: no degradation of LIMK2
- LIMK2 degradation (Western blot) [1]: did not induce any LIMK2 degradation
- cytotoxic effects [7]: no cytotoxic effects
